“And” between values parts separate entries of the source, which are not always exact repeats. Equal entries are not always repeated. Inconclusive results and toxic doses are left out. Rule for the calls: active = survival T/C of 150% or more; inactive = T/C below 125% in these data.
System: P388 leukemia ip, CD2F1 mice, survival T/C
Assay: NCI In Vivo Anticancer Drug Screen. Data for tumor model P388 Leukemia (intraperitoneal) in CD2F1 (CDF1) mice
Details: endpoint: median survival time, higher = longer survival
How it was run: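 Mice carrying the transplanted tumor received test compound or vehicle. Survival was recorded in each group, and the value is the treated-group measurement divided by that of the vehicle-treated control group.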

[1] = dose: 50.0 mg/kg/injection, schedule: Q01DX005 (ip), vehicle: saline with Tween-80
[2] = dose: 50.0 mg/kg/injection, schedule: Q01DX009 (ip), vehicle: saline with Tween-80
[3] = dose: 100.0 mg/kg/injection, schedule: Q01DX009 (ip), vehicle: saline with Tween-80
[4] = dose: 60.0 mg/kg/injection, schedule: Q01DX005 (ip), vehicle: saline with Tween-80
[5] = dose: 120.0 mg/kg/injection, schedule: Q01DX005 (ip), vehicle: saline with Tween-80
[6] = dose: 240.0 mg/kg/injection, schedule: Q01DX005 (ip), vehicle: saline with Tween-80
[7] = dose: 100.0 mg/kg/injection, schedule: Q01DX005 (ip), vehicle: saline with Tween-80

Measured: T/C

O=C1C=CC(=CC=C2C=CN(CCCCCCCCCCCO)C=C2)C=C1
inactive: dose: 1.56 mg/kg/injection, schedule: Q01DX005 (ip), vehicle: saline with Tween-80 111 % of control | dose: 3.12 mg/kg/injection, schedule: Q01DX005 (ip), vehicle: saline with Tween-80 114 % of control and 118 % of control | dose: 6.25 mg/kg/injection, schedule: Q01DX005 (ip), vehicle: saline with Tween-80 121 % of control | dose: 7.5 mg/kg/injection, schedule: Q01DX005 (ip), vehicle: saline with Tween-80 109 % of control | dose: 12.5 mg/kg/injection, schedule: Q01DX005 (ip), vehicle: saline with Tween-80 118 % of control and 121 % of control | dose: 15.0 mg/kg/injection, schedule: Q01DX005 (ip), vehicle: saline with Tween-80 109 % of control and 111 % of control | dose: 30.0 mg/kg/injection, schedule: Q01DX005 (ip), vehicle: saline with Tween-80 118 % of control | [1] 100 % of control

C=C1C(=O)OC2C1C(OC(=O)/C(C)=C/C)CC1(CO1)C1C(O)C3OC3(C)C21O (stereo not given)
inactive: dose: 25.0 mg/kg/injection, schedule: Q04DX002 (ip), vehicle: saline with Tween-80 117 % of control | dose: 50.0 mg/kg/injection, schedule: Q04DX002 (ip), vehicle: saline with Tween-80 117 % of control

Nc1ncnc2c1cnn2Cc1ccc(Cl)cc1
inactive: [2] 100 % of control | [3] 100 % of control

C=C[C@H]1[C@H](OC2OC(CO)C(O)C(O)C2O)OC=C2C(=O)N3CCS[C@H]3C[C@H]21 (stereo not given in full)
inactive: dose: 9.38 mg/kg/injection, schedule: Q01DX005 (ip), vehicle: Klucel (hydroxypropylcellulose) (HPC) 97 % of control | dose: 18.75 mg/kg/injection, schedule: Q01DX005 (ip), vehicle: Klucel (hydroxypropylcellulose) (HPC) 98 % of control | dose: 37.5 mg/kg/injection, schedule: Q01DX005 (ip), vehicle: Klucel (hydroxypropylcellulose) (HPC) 107 % of control | dose: 75.0 mg/kg/injection, schedule: Q01DX005 (ip), vehicle: Klucel (hydroxypropylcellulose) (HPC) 95 % of control | dose: 150.0 mg/kg/injection, schedule: Q01DX005 (ip), vehicle: Klucel (hydroxypropylcellulose) (HPC) 98 % of control

CCCCCCCCOC(=O)COc1ccc(Cl)cc1Cl
inactive: dose: 50.0 mg/kg/injection, schedule: Q01DX001 (ip), vehicle: Klucel (hydroxypropylcellulose) (HPC) 113 % of control | dose: 50.0 mg/kg/injection, schedule: Q01DX001 (ip), vehicle: saline with Tween-80 98 % of control | dose: 100.0 mg/kg/injection, schedule: Q01DX001 (ip), vehicle: Klucel (hydroxypropylcellulose) (HPC) 109 % of control | dose: 100.0 mg/kg/injection, schedule: Q01DX001 (ip), vehicle: saline with Tween-80 100 % of control | dose: 200.0 mg/kg/injection, schedule: Q01DX001 (ip), vehicle: Klucel (hydroxypropylcellulose) (HPC) 122 % of control | dose: 200.0 mg/kg/injection, schedule: Q01DX001 (ip), vehicle: saline with Tween-80 105 % of control

Cc1ccc(S(=O)(=O)N/N=C/C(C)c2cccnc2)cc1 (stereo not given)
inactive: [2] 105 % of control | [3] 99 % of control | dose: 200.0 mg/kg/injection, schedule: Q01DX009 (ip), vehicle: saline with Tween-80 107 % of control

CCn1cc(C(=O)O)c(=O)c2cc(F)c(-n3cccc3)cc21
inactive: [4] 101 % of control | [5] 99 % of control | [6] 98 % of control

O=c1cc(-c2ccc(Cl)cc2)c(-c2ccc(Cl)cc2)nn1CCO
inactive: dose: 100.0 mg/kg/injection, schedule: Q04DX002 (ip), vehicle: saline with Tween-80 95 % of control | dose: 200.0 mg/kg/injection, schedule: Q04DX002 (ip), vehicle: saline with Tween-80 95 % of control | dose: 400.0 mg/kg/injection, schedule: Q04DX002 (ip), vehicle: saline with Tween-80 89 % of control

O=S(=O)(NCCNS(=O)(=O)c1ccccc1)c1ccccc1
inactive: dose: 25.0 mg/kg/injection, schedule: Q01DX009 (ip), vehicle: Klucel (hydroxypropylcellulose) (HPC) 90 % of control | dose: 50.0 mg/kg/injection, schedule: Q01DX009 (ip), vehicle: Klucel (hydroxypropylcellulose) (HPC) 100 % of control | dose: 100.0 mg/kg/injection, schedule: Q01DX009 (ip), vehicle: Klucel (hydroxypropylcellulose) (HPC) 90 % of control | dose: 200.0 mg/kg/injection, schedule: Q01DX009 (ip), vehicle: Klucel (hydroxypropylcellulose) (HPC) 91 % of control

O=C(O)c1ccc(S(=O)(=O)F)c(Cl)c1
inactive: [4] 120 % of control | [5] 119 % of control | [6] 121 % of control

C[CH2][Sn]1([CH2]C)[O]S(=O)(=O)[O]1
inactive: dose: 1.56 mg/kg/injection, schedule: Q01DX005 (ip), vehicle: saline 124 % of control

COC(=O)c1cc(=O)n(-c2ccccc2C)c(SC)n1
inactive: dose: 100.0 mg/kg/injection, schedule: Q04DX002 (ip), vehicle: Klucel (hydroxypropylcellulose) (HPC) 105 % of control | dose: 200.0 mg/kg/injection, schedule: Q04DX002 (ip), vehicle: Klucel (hydroxypropylcellulose) (HPC) 105 % of control

C[Si](C)(C)C#CCO
inactive: [1] 101 % of control | [7] 100 % of control | dose: 200.0 mg/kg/injection, schedule: Q01DX005 (ip), vehicle: saline with Tween-80 105 % of control

C/C=C/C1CC2CC(CC(O)CC)CN2O1 (stereo not given)
inactive: dose: 25.0 mg/kg/injection, schedule: Q01DX005 (ip), vehicle: saline with Tween-80 108 % of control | [1] 100 % of control | [7] 110 % of control

Nc1nc(=O)n(C2CC(O)C(CO)O2)cc1Cl (stereo not given)
inactive: dose: 25.0 mg/kg/injection, schedule: Q01DX005 (ip), vehicle: saline 98 % of control | dose: 50.0 mg/kg/injection, schedule: Q01DX005 (ip), vehicle: saline 105 % of control | dose: 100.0 mg/kg/injection, schedule: Q01DX005 (ip), vehicle: saline 100 % of control | dose: 200.0 mg/kg/injection, schedule: Q01DX005 (ip), vehicle: saline 110 % of control | dose: 400.0 mg/kg/injection, schedule: Q01DX005 (ip), vehicle: saline 107 % of control

CCCCCCCCCCCCCCCCCCSc1c(OC)c(OC(C)=O)c(OC)c(OC)c1OC(C)=O
inactive: dose: 4.0 mg/kg/injection, schedule: Q01DX009 (ip), vehicle: Klucel (hydroxypropylcellulose) (HPC) 87 % of control | dose: 8.0 mg/kg/injection, schedule: Q01DX009 (ip), vehicle: Klucel (hydroxypropylcellulose) (HPC) 98 % of control | dose: 16.0 mg/kg/injection, schedule: Q01DX009 (ip), vehicle: Klucel (hydroxypropylcellulose) (HPC) 96 % of control | dose: 32.0 mg/kg/injection, schedule: Q01DX009 (ip), vehicle: Klucel (hydroxypropylcellulose) (HPC) 98 % of control

Cc1ccc2c(=O)c3ccccc3c3c2c1c1c(C)ccc2c(=O)c4ccccc4c3c21
inactive: dose: 50.0 mg/kg/injection, schedule: Q01DX005 (ip), vehicle: Klucel (hydroxypropylcellulose) (HPC) 108 % of control | dose: 100.0 mg/kg/injection, schedule: Q01DX005 (ip), vehicle: Klucel (hydroxypropylcellulose) (HPC) 102 % of control | dose: 200.0 mg/kg/injection, schedule: Q01DX005 (ip), vehicle: Klucel (hydroxypropylcellulose) (HPC) 107 % of control
